Test [1] concerns HeLa cells. As to the kind of experiment: Peak subG1 fraction by flow cytometry after declustering drugs, HeLa cells. The class given is cell-based. The protocol: (§1) To evaluate the impact of putative declustering drugs on cell cycle progression and hypodiploidy (<2N DNA content, which may indicate apoptotic cells), MDA-MB-231 (231), PC3, and HeLa cells were treated with different concentrations of declustering drugs, stained with propidium iodide, labeled with anti-MPM2 antibody, and then assessed by flow cytometry at multiple time points over 48 hr. […] The duration, highest degree, and rapidity of onset of MA varied between drugs, drug concentrations, and cell lines (data not shown). In general, the maximum MA achieved was less pronounced in Nos- and PJ-treated cells. Drug-induced onset of MA was corroborated by substantial increases in cyclin B1 levels in all cell lines. For most cases, prolonged MA (˜24 hr in duration) was followed by a substantial increase in the subG1 population fraction. […] Instances where the subGl fraction was elevated without cleaved caspase-3 may either represent caspase-independent cell death or the presence of hypodiploid cells whose fate is unclear. In general, no consistent associations between the extent, duration, or timing of MA within drugs or across cell lines was found.

For test [2], the system named is adult human dermal fibroblasts (HDFs). As to the kind of experiment: Peak subG1 fraction after declustering drugs, non-malignant HDFs. The class given is cell-based. The note with it: for Peak subG1 percents over 48 h: HDF; for death in cancer cell lines vs. HDFs: both concentrations. The protocol: as §1
(§2) To determine whether the CA-inducing activity of declustering drugs is restricted to cancer cells, two non-malignant cell lines, mammary fibrocystic (MCF10A) cells and adult human dermal fibroblasts (HDFs) were treated with these drugs. […] In comparison, 10 and 25 µM RBN increased peak CA over controls in interphase cells (p<0.001 and p=0.001, respectively), with the lower concentration dramatically augmenting peak CA to 56% of cells versus 15% for the higher dose (FIG. 13, panel B).
In HDFs, all the drugs tested increased peak subG1 over controls in a significant fashion (p<0.01 for all) (Table 2). […] Thus, it appears that there may be clinically relevant therapeutic windows for these drugs depending on the type of cancer and the drug dosage.

Test [3] concerns MDA-MB-231 (231), PC3, and HeLa cells. The test is described as follows: Mitotic arrest (MA) metrics by flow cytometry (anti-MPM2) across cell lines. The class given is cell-based. From the text:
FIG. 10 depicts mitotic arrest metrics across cell lines for each declustering drug. […] A lack of box in the plot occurs when the median is very close (or equal) to the inter-quartile range limits, in which case notch is shown with a default height and starting point of whisker line extension indicates 25% or 75% position. Because the coarse-grained data are integers and the size of the data sets are small (n<8), in some cases the median, lower or upper inter-quartile range values, or the max or min values, may coincide in some combination. This figure broadly visualizes clustering and correlation in the coarse-grained data. For instance, non-integer values have no intrinsic meaning but, for instance, a median value of 4.4 indicates a concentration of categories recorded in categories 4 or 5. […] TRH=“time reach highest” value; CTP=“consecutive time points,” MA_totCTP=sum(MA_SnCTP for n=2 . . . 5).
To evaluate the impact of putative declustering drugs on cell cycle progression and hypodiploidy (<2N DNA content, which may indicate apoptotic cells), MDA-MB-231 (231), PC3, and HeLa cells were treated with different concentrations of declustering drugs, stained with propidium iodide, labeled with anti-MPM2 antibody, and then assessed by flow cytometry at multiple time points over 48 hr. […]

Test [4] has as its system adult human dermal fibroblasts (HDFs). As to the kind of experiment: Centrosome amplification (CA) by microscopy, HDFs. It counts as cell-based. The following applies: for peak CA: interphase HDFs. The protocol:
Consequently, CA was assessed in cultures treated with different concentrations of declustering drugs for 6, 12, 18, or 24 h and untreated controls via microscopy. Centrosomes were identified by γ-tubulin and centrin-2 colocalization at discrete foci.
as §2

A further test concerns PC3 cells. The test is described as follows: Peak subG1 fraction by flow cytometry after declustering drugs, PC3 cells. The class given is cell-based. The protocol:
as §1

Test [5] relates to HeLa cells. The test is described as follows: Centrosome amplification (CA) by microscopy, HeLa cells. The following applies: for cells having CA (maximum extent) / increase in CA over controls: mitotic HeLa cells. It counts as cell-based. The protocol: Consequently, CA was assessed in cultures treated with different concentrations of declustering drugs for 6, 12, 18, or 24 h and untreated controls via microscopy. Centrosomes were identified by γ-tubulin and centrin-2 colocalization at discrete foci. […] The peak percent CA detected over 24 h is shown in FIG. 13 (only statistically significant (P<0.05) increases over control values are represented in the Figures). To better understand the “potency” of drug-induced CA with time, the average fold change in CA over controls over 24 h was assessed (FIG. 12, panel A), whereby the extent of CA across time points (i.e., 6, 12, 18, and 24 hr) was averaged and then divided by the extent of CA in control (i.e., 0 hr). All of the drugs at least doubled the peak extent of CA in all cell lines tested (FIG. 12, panel A), although the final extent of CA could be small or large in magnitude depending on the initial centrosomal burden as shown in FIG. 11. […] The peak extent in interphase HeLa cells was somewhat less at 30.7% and 48.1% for 10 and 25 μM RBN, respectively (FIG. 13, panel A). For Nos and BN, there was no major difference in CA levels in interphase versus mitotic cells.

For another test, the system named is MDA-MB-231 (231) cells. As to the kind of experiment: Peak subG1 fraction by flow cytometry (propidium iodide) after declustering drugs, 231 cells. The class given is cell-based, human. The protocol:
as §1

A further test concerns N1E-115 cells. As to the kind of experiment: Interphase declustering index (DI) in N1E-115 cells. It counts as cell-based, murine. The following applies: 6-h treatment, 25 interphase cells, drugs at their respective IC50 concentrations. The protocol:
To evaluate their effect on interphase clustering, N1E-115 cells were treated with these drugs at their respective IC50 concentrations for 0, 3, 6 and 9 h and co-immunostained for γ-tubulin and α-tubulin to evaluate centrosomal spread and microtubule nucleation status, respectively.
Cell cycle phases were further evaluated via lamin A/C immunostaining to distinguish interphase declustering events from prophase centrosomal spread. To quantitate the spread of the interphase centrosomal cluster, a 3D reconstruction of z-stack images of 25 randomly-selected interphase cells from the 6-h treatment group of each drug were generated. By defining an ROI (region of interest) around the interphase centrosomal cluster, the volume of the cluster spread was calculated using Volocity software. Likewise, defining an ROI using the cell periphery provided the cell volume.

[6] abbreviates: interphase HeLa cells, 25 μM, over 24 h.

Bounds are passed on as bounds.

This is an account of results in US10242153B2, “Method for determining the risk profile of neoplastic tissue” (NOVAZOI THERANOSTICS, priority 2014, dated 2019).

Turning to reduced-9-bromonoscapine [RBN], the “Peak subG1 percents over 48 h” value with HeLa cells [1] (10 μM) was found to be 54.1%; in the test on HeLa cells [1] (25 μM) it was 75.6%; in test [2] (10 μM) it was 35.9%; in test [2] (25 μM), 39.9%; in the test with PC3 cells (10 μM), 80.7%; in the test with PC3 cells (25 μM), 73.0%. The results for the “Peak subG1 percents over 48 h” value in the test with MDA-MB-231 (231) cells (10 μM) and with MDA-MB-231 (231) cells (25 μM) were 47.0% and 80.8%, respectively. The “maximum (peak) subG1 fraction relative to control” value with HeLa cells [1] (10 μM) was 9 × control; in the test with PC3 cells (10 μM), 8 × control; in the test with MDA-MB-231 (231) cells (25 μM), 25 × control. The “death in cancer cell lines vs. HDFs” value in test [2] is given as “more death in 231 cells”. Besides, the “peak MA (MA:HR), cells in MA” value in test [3] (category near "4") was ≥ 30%. For the same molecule, the “peak CA” value in test [4] (10 μM) was 56 % of cells; in test [4] (25 μM), 15%. In test [4] (mitotic HDFs, 10 μM), the “extent of CA” value was 10%. For the same molecule, in test [4] (mitotic HDFs, 25 μM), the “extent of CA versus controls” value is given as “Only 10 but not 25 μM RBN increased the extent of CA in mitotic cells”. The “peak extent of CA” value in the test with HeLa cells [5] (interphase HeLa cells, 10 μM, over 24 h) amounted to 30.7%. Also, the “peak (final) extent of CA” value with HeLa cells [5] (setting [6]) came to 48.1%. Moreover, the “cells having CA (maximum extent)” value in the test with HeLa cells [5] (10 μM) amounted to 78%; in the test on HeLa cells [5] (25 μM), 42%. For the same molecule, the “increase in CA over controls” value is “approximately 40 fold” in the test on HeLa cells [5] (10 μM) and ~20 fold in the test with HeLa cells [5] (25 μM). Further, the “interphase declustering index (DI): ratio of average cluster volume to average cell volume” value with N1E-115 cells amounted to 0.36.

With `CN(C)CC(=O)Nc1ccc2[nH]c(=O)c3ccccc3c2c1` [PJ, PJ-34], the “Peak subG1 percents over 48 h” value in the test with HeLa cells [1] (10 μM) is 48.5%; in the test on HeLa cells [1] (25 μM), 64.4%; in test [2] (10 μM), 13.6%; in test [2] (25 μM), 28.2%; with PC3 cells (10 μM) it was 62.4%; in the test with PC3 cells (25 μM) it was 48.4%. For the same molecule, the “Peak subG1 percents over 48 h” value stood at 37.0% in the test on MDA-MB-231 (231) cells (10 μM) and 65.0% in the test on MDA-MB-231 (231) cells (25 μM). Moreover, the “maximum (peak) subG1 fraction relative to control” value in the test on HeLa cells [1] (10 μM) amounted to 4.8 × control; with MDA-MB-231 (231) cells (25 μM) it was 10.4 × control. Also, in test [2], the “death in cancer cell lines vs. HDFs” value is “more death in all cancer cell lines vs. HDFs”. Further, the “mean time to peak MA (MA:TRH)” value in test [3] (coarse-grained categories) was ~12 h. Moreover, the “extent of CA over controls” value in test [4] (HDFs, any of the concentrations or time points assessed) was “no significant impact on CA”. The “increase in peak CA extent over controls” value with HeLa cells [5] (interphase HeLa cells, 25 μM) is ~20 fold. The “peak (final) extent of CA” value in the test with HeLa cells [5] (setting [6]) is reported as < 20%. Moreover, the “interphase declustering index (DI): ratio of average cluster volume to average cell volume” value in the test with N1E-115 cells came out at 0.14.
